Values of other authors as cited in US20150132345A1, “NITRIC OXIDE-SEQUESTERING TOPICAL FORMULATIONS” (priority 2011, published 2015).

What was measured:
Conditions in all cases: multiple 30 minutes treatments of 160 ppm nitric oxide
Staphylococcus aureus = system: Staphylococcus aureus
Escherichia coli = system: Escherichia coli
Pseudomonas aeruginosa = system: Pseudomonas aeruginosa

For `[N]=O` [nitric oxide], the “decrease in the bacterial load” value (Staphylococcus aureus) is given as > 5 log 10 colony forming unit per milliliter (CFU/ml), the “decrease in the bacterial load” value (Escherichia coli) is given as > 5 log 10 colony forming unit per milliliter (CFU/ml) and the “decrease in the bacterial load” value (Pseudomonas aeruginosa) is given as > 5 log 10 colony forming unit per milliliter (CFU/ml).
